Data from patent publication US20090030071A1, “Treatment of Cardiovascular Disease in Mexican Americans Using Nebivolol” (priority 2007, published 2009).
“Also recorded” adds a separate entry of the source.

Columns and labels:
[1] = test system: human umbilical vein endothelial cells (HUVECs); test: Endothelial-dependent NO release from HUVECs of non-Hispanic white and Mexican American donors, measured with electrochemical nanosensors; assay type: cell-based; details: for increase in NO release (NO bioavailability): 24 h pretreatment with nebivolol at 1.0 μM (FIG. 4)
Procedure: The effects of nebivolol and atenolol on endothelial-dependent NO release were tested in human umbilical vein endothelial cells (HUVECs). Human umbilical vein endothelial cells were isolated into primary cultures from non-Hispanic white and Mexican American female donors by Clonetics (San Diego, Calif.) and purchased as proliferating cells. All cell culture donors were healthy, with no pregnancy or prenatal complications. None of the donors took any drugs regularly and all were nonsmokers and consumed regular caloric/content diet. The identification of race was defined by self-report. The cultured cells were incubated in 95% air/5% CO2 at 37° C. and passage by an enzymatic (trypsin) procedure. […] Before the experiments, the cells (from second or third passage) were rinsed twice with Tyrode-HEPES buffer with 1.8 mmol/L CaCl2. Drugs were obtained from Mylan Laboratories (Morgantown, W. Va.). NO measurement was carried out with electrochemical nanosensors The design was based on previously developed and well-characterized chemically modified carbon-fiber technology ([…], Nature 358, 676-678, 1992; […]. Anal. Chem. 69, 454-462, 1997). Each of the nanosensors was made by depositing a sensing material on the tip of a carbon fiber (length 4-5 μm, diameter 0.2-0.5 μm). The fibers were sealed with nonconductive epoxy and electrically connected to copper wires with conductive silver epoxy. […] The NO nanosensors (diameter 1-2 μm) with a platinum wire (0.1 mm) counter electrode and saturated calomel reference electrode (SCE) were applied. Differential pulse voltammetry (DPV) and amperometry were performed with a computer-based Gamry VFP600 multichannel potentiostat. DPV was used to measure the basal NO concentrations, and amperometry was used to measure changes in NO concentrations from its basal level with time. The DPV current at the peak potential characteristic for NO oxidation (0.65 V) […] was directly proportional to the local concentrations of these compounds in the immediate vicinity of the sensor. Linear calibration curves (current vs. concentration) were constructed for each sensor from 10 nmol/L to 3 μmol/L before and after measurements with aliquots of NO standard solutions, respectively. The detection limit of the sensors was 10^-9 mol/L. The quantification of each analyte (concentration in nmol/L) was performed using a maximum current from amperograms and standard calibration curves. A reproducibility of measurements with nanosensors is relatively high (between 5-12%). […] The sensors were slowly raised 4±1 μm from the surface of a single endothelial cell. The HUVEC preparation is stable over the course of these experiments with the cells remaining viable in culture for >24 hours. Under non-stimulating conditions, basal levels of NO release are very low (<30 nM). […]

[2] = test system: human umbilical vein endothelial cells; test: CaI-stimulated endothelial NO release in HUVECs from MA and NHW donors after 24 h pre-treatment (nanosensor array); assay type: cell-based; details: for enhancement of NO release: pretreatment 24 hr, 1.0 μM, CaI 1.0 μM stimulus
Procedure: (§1) Endothelial function in cells from normotensive, age-matched Mexican American (MA) and Non-Hispanic White (NHW) donors, as well as the effects of treatment with nebivolol was also determined. Endothelial NO and peroxynitrite (ONOO^−) release was measured simultaneously in human umbilical vein endothelial cells from age-matched MA and NHW donors using a nanosensor array. The effects of nebivolol on NO and ONOO^− production was evaluated following pre-treatment (24 h) using calcium ionophore (CaI) as a receptor-independent stimulus. Levels of eNOS were measured by Western blot analysis. Drug-membrane interactions were determined by small angle x-ray diffraction analysis.

[3] = test system: arteries isolated from control Wistar-Kyoto (WKY) rats; test: NO release from arteries isolated from control Wistar-Kyoto (WKY) rats; set-up: species or system rat; details: for amount of NO released: WKY rat arteries, concentration of 10 μM (maximum NO release)
Procedure: In one aspect of the present invention, a composition comprising nebivolol is administered to a person of Hispanic descent, particularly a Mexican American, wherein nebivolol is administered in a mixture containing a greater proportion (enantiomeric excess) of the l-steroisomer of nebivolol. In another embodiment, all or substantially all of the mixture comprises the l-stereoisomer of nebivolol. NO release levels from arteries isolated from control Wistar-Kyoto (WKY) rats following treatment with nebivolol racemate, l-nebivolol or d-nebivolol vary. […] At this concentration, the amount of NO released was 340±30 nM, 284±24 nM, and 180±21 nM for l-nebivolol, nebivolol racemate and d-nebivolol, respectively. These findings confirm that nebivolol can stimulate NO release in the intact artery in a stereoselective manner. See also, Xhonneux R, Wouters L, Reneman R S, et al. The l-enantiomer of nebivolol potentiates the blood pressure lowering effect of the d-enantiomer. Eur. J. Pharmacol. 1990; 181:261-265.

[4] = test system: human umbilical vein endothelial cells; test: CaI-stimulated peroxynitrite (ONOO−) release in HUVECs from MA and NHW donors after 24 h pre-treatment (nanosensor array); assay type: cell-based; details: for reduction of ONOO− levels: nebivolol pretreatment
Procedure: as §1

[5] = test system: aortic endothelial cells; test: STZ-induced diabetes: CaI-induced endothelial-dependent NO release from aortic endothelial cells after nebivolol treatment of animals; assay type: in vivo; details: nebivolol treatment prior to sacrifice at 13 weeks, p=0.1273
Text: FIG. 6 depicts the effects of STZ-induced diabetes on the ratio of CaI-induced NO/ONOO release from aortic endothelial cells in the absence and presence of nebivolol treatment prior to sacrifice of animals at 13 weeks. Values are reported as mean±SD. *p<0.0001 versus control and ^†p<0.001 versus STZ treatment (Student t-test). FIG. 7 depicts the effects of STZ-induced diabetes on CaI-induced endothelial-dependent NO release from aortic endothelial cells in the absence and presence of nebivolol treatment prior to sacrifice of animals at 13 weeks. Values are reported as mean±SD. *p<0.0001 versus control and ^†p<0.001 versus STZ treatment (Student t-test).

[6] = test system: eNOS; test: eNOS levels by Western blot analysis in endothelium; assay type: cell-based, human; details: MA endothelium, nebivolol treatment
Procedure: as §1

`CC(C)NCC(O)COc1ccc(CC(N)=O)cc1` (stereo not drawn) [atenolol] was tested, and the “stimulation of NO release” value ([1]; either racial group, identical conditions (24 h pre-incubation at 1.0 or 5.0 μM, FIGS. 4 and 5)) was “failed to stimulate any significant amount of NO release; also recorded: did not have any effect” and the “effects on NO release, ONOO− levels, NO/ONOO− ratio and eNOS levels” value ([2]; MA and NHW HUVECs) was “not observed”.

For `O[C@@H](CNC[C@H](O)[C@H]1CCc2cc(F)ccc2O1)[C@@H]1CCc2cc(F)ccc2O1` [l-nebivolol], the “amount of NO released” value [3] was 340 ± 30 nM.

With `O[C@H](CNC[C@@H](O)[C@H]1CCc2cc(F)ccc2O1)[C@@H]1CCc2cc(F)ccc2O1` [d-nebivolol] the “ability to stimulate NO release (order of activity)” value ([3]; WKY arterial vessels) was “weakest stimulant of NO release” and the “amount of NO released” value [3] was 180 ± 21 nM.

In the case of `OC(CNCC(O)C1CCc2cc(F)ccc2O1)C1CCc2cc(F)ccc2O1` (racemic) [nebivolol, α, α′-[iminobismethylene]bis[6-fluoro-3,4-dihydro-2H-1-benzopyran-2-methanol]], the “amount of NO released” value [3] is reported as 284 ± 24 nM, the “ONOO− level after treatment” value ([4]; MA endothelium, from 746±12 nM without treatment) is reported as 195 ± 10 nM and the “reduction of ONOO− levels” value ([4]; MA endothelium) is reported as 75%. For the same compound, the “ONOO− level after treatment” value ([4]; NHW endothelium, from 416±7 nM without treatment) was 191 ± 13 nM, the “reduction of ONOO− levels” value ([4]; NHW endothelium) was 50% and the “increase in NO release (NO bioavailability)” value ([1]; HUVECs from Mexican American donors) was 138 ± 2 nM. The “increase in NO release (NO bioavailability)” value ([1]; HUVECs from white donors) was 68 ± 3 nM, the “increase in NO bioavailability, Mexican American samples relative to white donors” value ([1]; nebivolol at 1.0 μM, 24 h pretreatment) was “two-fold greater” and the “CaI-induced endothelial-dependent NO release versus non-diabetic control animals” value [5] was “not a statistically significant difference as compared to non-diabetic control animals”. For the same compound, the “increase of eNOS levels” value [6] was “two-fold”, the “enhancement of NO release” value ([2]; MA cells) was 57% and the “increase of ratio of NO to ONOO− (indicator of eNOS coupling)” value ([2]; MA, following nebivolol treatment) was “more than 5 fold”. The “enhancement of NO release” value ([2]; NHW cells) was 20%.
